The IC50 is the concentration at which inhibition is half-maximal.

The text below walks through data of US20240150345A1, “GCN2 MODULATING COMPOUNDS AND USES THEREOF” (HiberCell, Inc., priority 2021, published 2024).

T1 sequence (Q9P2K8 whole entry): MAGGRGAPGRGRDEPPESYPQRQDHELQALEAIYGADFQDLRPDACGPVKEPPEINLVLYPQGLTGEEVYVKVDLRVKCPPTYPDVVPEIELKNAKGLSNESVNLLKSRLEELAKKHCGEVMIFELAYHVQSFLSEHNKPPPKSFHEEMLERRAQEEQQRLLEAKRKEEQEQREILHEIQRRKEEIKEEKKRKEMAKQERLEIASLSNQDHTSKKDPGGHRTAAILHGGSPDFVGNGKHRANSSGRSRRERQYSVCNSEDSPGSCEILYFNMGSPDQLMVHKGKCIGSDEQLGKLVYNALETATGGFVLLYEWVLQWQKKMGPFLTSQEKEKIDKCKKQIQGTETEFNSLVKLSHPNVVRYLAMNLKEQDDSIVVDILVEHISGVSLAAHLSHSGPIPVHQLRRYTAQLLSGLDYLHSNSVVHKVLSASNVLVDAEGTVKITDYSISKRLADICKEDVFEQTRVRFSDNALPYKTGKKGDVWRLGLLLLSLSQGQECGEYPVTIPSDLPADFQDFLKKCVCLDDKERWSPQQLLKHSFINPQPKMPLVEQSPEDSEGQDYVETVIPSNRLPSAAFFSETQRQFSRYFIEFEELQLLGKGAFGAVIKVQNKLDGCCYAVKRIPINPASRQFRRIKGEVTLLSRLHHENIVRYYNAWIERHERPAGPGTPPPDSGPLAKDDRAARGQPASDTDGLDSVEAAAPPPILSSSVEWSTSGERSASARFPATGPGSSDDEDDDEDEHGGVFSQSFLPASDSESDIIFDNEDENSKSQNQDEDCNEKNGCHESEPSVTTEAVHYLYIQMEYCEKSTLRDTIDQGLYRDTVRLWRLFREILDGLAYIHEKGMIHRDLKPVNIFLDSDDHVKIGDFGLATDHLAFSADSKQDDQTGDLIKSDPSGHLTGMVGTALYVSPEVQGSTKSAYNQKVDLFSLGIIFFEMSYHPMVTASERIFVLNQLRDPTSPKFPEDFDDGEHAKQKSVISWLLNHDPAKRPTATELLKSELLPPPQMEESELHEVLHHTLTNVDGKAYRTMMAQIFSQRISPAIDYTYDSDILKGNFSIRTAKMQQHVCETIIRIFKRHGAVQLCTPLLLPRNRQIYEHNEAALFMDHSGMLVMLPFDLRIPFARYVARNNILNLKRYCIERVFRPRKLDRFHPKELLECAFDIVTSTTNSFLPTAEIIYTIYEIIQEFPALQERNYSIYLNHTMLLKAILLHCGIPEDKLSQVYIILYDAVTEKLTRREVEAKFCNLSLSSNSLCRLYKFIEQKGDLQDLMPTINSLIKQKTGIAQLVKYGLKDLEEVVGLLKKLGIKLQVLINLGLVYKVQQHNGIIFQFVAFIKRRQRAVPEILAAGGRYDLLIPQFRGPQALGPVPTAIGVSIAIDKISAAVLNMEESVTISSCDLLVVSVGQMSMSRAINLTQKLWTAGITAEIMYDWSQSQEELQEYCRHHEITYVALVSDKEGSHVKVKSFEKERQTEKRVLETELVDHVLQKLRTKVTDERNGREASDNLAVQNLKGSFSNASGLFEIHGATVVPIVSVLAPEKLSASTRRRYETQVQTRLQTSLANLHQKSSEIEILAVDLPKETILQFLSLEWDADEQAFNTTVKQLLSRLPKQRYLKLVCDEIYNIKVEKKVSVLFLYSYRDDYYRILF

The test concerns the target T1, GCN2 (Homo sapiens, UniProt Q9P2K8).
T1 construct: purchased Carma Biosciences (so in the source)
Nature of the test: TR-FRET biochemical assay for inhibition of GCN2 activity. The following applies: 2 nM GCN2, 100 nM GFP-eIF2α, 150 μM ATP, 1.5 hours at 25° C. As to the method:
Exemplary compounds from the above Examples were tested for ability to inhibit GCN2 activity using a time resolved fluorescence energy transfer (TR-FRET) assay. Assay procedures and results are described below for Examples 12-105.
GCN2 protein was obtained from Carma Biosciences (cat #05-153). The protein was diluted in assay buffer (ThermoFisher Scientific, #PV6135), 2 mM dithiothreitol (DTT), to obtain a final concentration of 2 nM and 5 μL was plated in a 384-well white assay plate. Test compounds were serially diluted to 11 concentrations by 3-fold dilution in DMS0 and 10 nL of stock was plated into 384 well white assay plate. DMS0 was used as a vehicle control. GFP-eIF2α protein was obtained from ThermoFisher (cat #PV4809). The protein was diluted in assay buffer to a 2× concentration of 200 nM along with 300 μM ATP (final concentration of 100 nM GFP-eIF2α and 150 μM ATP) in the presence of 2 mM DTT and a […] was added to each well containing the GCN2 protein and test compound. The plate was incubated in the dark at 25° C. for 1.5 hours, shaking at 1250 rpm. Tb-anti P-eIF2α (ThermoFisher cat #PV4815) was diluted to a to a concentration of 1 nM in TR-FRET Dilution Buffer (ThermoFisher cat #PV3574). 10 μL of the Tb-anti P-eIF2a solution was added to the TR-FRET reaction. The plate was incubated in the dark for 2 h at 25° C. shaking at 600 rpm. The FRET signal from the plate was read on a Envision (PerkinElmer) plate reader: • Label 1: Excitation: 340 nm, bandwidth 30 nm; Emission: 495 nm, bandwidth 10 nm. Lag time: 100 μsec. Integration time: 400 μsec. Flashes: 30. • Label 2: Excitation: 340 nm, bandwidth 30 nm; Emission: 520 nm, bandwidth 25 nm. Lag time: 100 μsec. Integration time: 400 μsec. Flashes: 30
The data were analyzed using GraphPad Prism employing a 4-parameter sigmoidal curve fit.
Take `COc1ncc(Cl)cc1S(=O)(=O)Nc1ccc(F)c(CCc2cnc3cnn(C(C)C)c3c2)c1F` [Compound 35, 5-chloro-N-[2,4-difluoro-3-(2-[1-isopropylpyrazolo[4,3-b]pyridin-6-yl]ethyl)phenyl]-2-methoxypyridine-3-sulfonamide]: the IC50 is less than 50 nM.
The value for `COc1ncc(Cl)cc1S(=O)(=O)Nc1ncc(F)c(COc2cnc3[nH]nc(C)c3c2)c1Cl` [Compound 79, 5-chloro-N-[3-chloro-5-fluoro-4-[([3-methyl-1H-pyrazolo[3,4-b]pyridin-5-yl]oxy)methyl]pyridin-2-yl]-2-methoxypyridine-3-sulfonamide] was less than 50 nM; that for `COc1ncc(F)cc1S(=O)(=O)Nc1ccc(F)c(COc2cnc3[nH]nc(C)c3c2C2CC2)c1F` [Compound 86, N-[3-[([4-cyclopropyl-3-methyl-1H-Pyrazolo[3,4-b]pyridin-5-yl]oxy)methyl]-2,4-difluorophenyl]-5-fluoro-2-methoxypyridine-3-sulfonamide] was 50 to 500 nM; that for `COc1ncc(Cl)cc1S(=O)(=O)Nc1ccc(F)c(COc2cnc3[nH]nc(C)c3c2)c1F` [Compound 14, 5-chloro-N-[2,4-difluoro-3-[([3-methyl-1H-pyrazolo[3,4-b]pyridin-5-yl]oxy)methyl]phenyl]-2-methoxypyridine-3-sulfonamide] was less than 50 nM.
The value for `COc1ncc(F)cc1S(=O)(=O)Nc1ccnc(COc2cnc3[nH]nc(C)c3c2)c1F` [Compound 63, 5-fluoro-N-[3-fluoro-2-[([3-methyl-1H-pyrazolo[3,4-b]pyridin-5-yl]oxy)methyl]pyridin-4-yl]-2-methoxypyridine-3-sulfonamide] was 50 to 500 nM; that for `Cc1ncc(F)cc1S(=O)(=O)Nc1ccc(F)c(COc2cnc3[nH]nc(C)c3c2)c1F` [Compound 38, N-[2,4-difluoro-3-[([3-methyl-1H-pyrazolo[3,4-b]pyridin-5-yl]oxy)methyl]phenyl]-5-fluoro-2-methylpyridine-3-sulfonamide] was less than 50 nM; that for `COc1ncc(F)cc1S(=O)(=O)Nc1ccc(F)c(COc2cnc3[nH]nc(C)c3c2-c2cccnc2)c1F` [Compound 91, N-[2,4-difluoro-3-([[3-methyl-4-(pyridin-3-yl)-1H-pyrazolo[3,4-b]pyridin-5-yl]oxy]methyl)phenyl]-5-fluoro-2-methoxypyridine-3-sulfonamide] was 50 to 500 nM.
Take `COc1ncc(F)cc1S(=O)(=O)Nc1ccc(F)c(COc2cnc3[nH]ncc3c2OC)c1F` [Compound 23, N-[2,4-difluoro-3-[([4-methoxy-1H-pyrazolo[3,4-b]pyridin-5-yl]oxy)methyl]phenyl]-5-fluoro-2-methoxypyridine-3-sulfonamide]: the IC50 lay within 50 to 500 nM.
The value for `Cc1ncc(F)cc1S(=O)(=O)Nc1ccc(Cl)c(COc2cnc3[nH]nc(C)c3c2)c1F` [Compound 77, N-(4-chloro-2-fluoro-3-(((3-methyl-1H-pyrazolo[3,4-b]pyridin-5-yl)oxy)methyl)phenyl)-5-fluoro-2-methylpyridine-3-sulfonamide] was less than 50 nM; that for `COc1ncc(F)cc1S(=O)(=O)Nc1ccc(F)c(COc2cnc3[nH]nc(C)c3c2C2CCCC2)c1F` [Compound 92, N-(3-(((4-cyclopentyl-3-methyl-1H-pyrazolo[3,4-b]pyridin-5-yl)oxy)methyl)-2,4-difluorophenyl)-5-fluoro-2-methoxypyridine-3-sulfonamide] was 500 to 1000 nM; that for `COc1ncc(Cl)cc1S(=O)(=O)Nc1ccc(F)c(OCc2cnc3[nH]nc(C)c3c2)c1F` [Compound 46, 5-chloro-N-[2,4-difluoro-3-([3-methyl-1H-pyrazolo[3,4-b]pyridin-5-yl]methoxy)phenyl]-2-methoxypyridine-3-sulfonamide] was less than 50 nM.
The value for `COc1ncc(F)cc1S(=O)(=O)Nc1ccc(F)c(COc2cnc3[nH]nc(C)c3c2)n1` [Compound 67, 5-fluoro-N-[5-fluoro-6-[([3-methyl-1H-pyrazolo[3,4-b]pyridin-5-yl]oxy)methyl]pyridine-2-yl]-2-methoxypyridine-3-sulfonamide] was more than 1000 nM; that for `COc1ncc(Cl)cc1S(=O)(=O)Nc1ccc(F)c(CCc2cnc3[nH]ncc3c2)c1F` [Compound 7, 5-chloro-N-[2,4-difluoro-3-(2-[1H-pyrazolo[3,4-b]pyridin-5-yl]ethyl)phenyl]-2-methoxypyridine-3-sulfonamide] was less than 50 nM; that for `COc1ncc(F)cc1S(=O)(=O)Nc1ccc(F)c(COc2cnc3[nH]nc(C4CC4)c3c2)c1F` [Compound 70, N-(3-(((3-cyclopropyl-1H-pyrazolo[3,4-b]pyridin-5-yl)oxy)methyl)-2,4-difluorophenyl)-5-fluoro-2-methoxypyridine-3-sulfonamide] was less than 50 nM.
The value for `COc1ncc(Cl)cc1S(=O)(=O)Nc1ccc(F)c(CCc2cnc3cn(C)nc3c2)c1F` [Compound 17, 5-chloro-N-[2,4-difluoro-3-(2-[2-methylpyrazolo[4,3-b]pyridin-6-yl]ethyl)phenyl]-2-methoxypyridine-3-sulfonamide] was less than 50 nM; that for `Cc1ncc(F)cc1S(=O)(=O)Nc1ccc(F)c(OCc2cnc3[nH]nc(C)c3c2)c1F` [Compound 51, N-[2,4-difluoro-3-([3-methyl-1H-pyrazolo[3,4-b]pyridin-5-yl]methoxy)phenyl]-5-fluoro-2-methylpyridine-3-sulfonamide] was 50 to 500 nM; that for `COc1ncc(F)cc1S(=O)(=O)Nc1ccc(F)c(COc2cnc3[nH]ncc3c2)c1F` [Compound 21, N-[2,4-difluoro-3-([1H-pyrazolo[3,4-b]pyridin-5-yloxy]methyl)phenyl]-5-fluoro-2-methoxypyridine-3-sulfonamide] was less than 50 nM.
Take `COc1ncc(F)cc1S(=O)(=O)Nc1ccc(F)c(COc2cnc3[nH]nc(C)c3c2-c2ccccn2)c1F` [Compound 90, N-[2,4-difluoro-3-([[3-methyl-4-(pyridin-2-yl)-1H-pyrazolo[3,4-b]pyridin-5-yl]oxy]methyl)phenyl]-5-fluoro-2-methoxypyridine-3-sulfonamide]: the IC50 lay within 50 to 500 nM.
The value for `COc1ncc(F)cc1S(=O)(=O)Nc1ncc(F)c(COc2cnc3[nH]nc(C)c3c2)c1F` [Compound 56, N-[3,5-difluoro-4-[([3-methyl-1H-pyrazolo[3,4-b]pyridin-5-yl]oxy)methyl]pyridin-2-yl]-5-fluoro-2-methoxypyridine-3-sulfonamide] was less than 50 nM; that for `CCc1n[nH]c2ncc(OCc3c(F)ccc(NS(=O)(=O)c4cc(F)cnc4C)c3F)cc12` [Compound 47, N-[3-[([3-ethyl-1H-pyrazolo[3,4-b]pyridin-5-yl]oxy)methyl]-2,4-difluorophenyl]-5-fluoro-2-methylpyridine-3-sulfonamide] was less than 50 nM.
`COc1ncc(Cl)cc1S(=O)(=O)Nc1ccc(F)c(COc2cnc3[nH]ncc3c2C)c1F` [Compound 22, 5-chloro-N-[2,4-difluoro-3-[([4-methyl-1H-pyrazolo[3,4-b]pyridin-5-yl]oxy)methyl]phenyl]-2-methoxypyridine-3-sulfonamide] came in with an IC50 of less than 50 nM.
For the compound `COc1ncc(Cl)cc1S(=O)(=O)Nc1ccc(F)c(COc2cnn3cncc3c2)c1F` [Compound 60, 5-chloro-N-(2,4-difluoro-3-((imidazo[1,5-b]pyridazin-3-yloxy)methyl)phenyl)-2-methoxypyridine-3-sulfonamide], the IC50 is less than 50 nM.
